Reference: patent publication US6777445B2, “Fullerene pharmaceutical compositions for preventing or treating disorders” (priority 2000, dated 2004)

Test system: E. coli
Test: E. coli-induced meningitis death, C60(C3) given immediately before E. coli (Test 1)
Assay type: in vivo, B6 mice
Conditions: 6 mg/kg i.p. C60(C3), again at 24 and 48 hours
Experimental: E. coli ATCC 10536 was cultured in Luria-Bertain (LB) broth (1% NaCl, 1% tryptone, 0.5% yeast extract) for 12 hours and was subcultured in fresh medium for another 3 h. The concentration of E. coli was determined with a spectrophotometer (Beckman Instrument, Somerset, N.J.), with an optical density at 600 nm of 1 equal to […] (Wang, S. D., et al., J. Immunol. 152:5014-5021). For the induction of meningitis, groups of three to four mice were given intracerebral injections directly into the temporal area of a volume of 5×10^5 E. coli cells diluted in saline. The 100% lethal dose (LD100) by intracerebral injection in B6 mice is 5×10^5 E. coli cells. The animals were observed every 12 hours for a total of 6 days. In some experiments, the brains were aseptically removed and were homogenized with 3% gelatin (Difco Laboratories, Detroit, Mich.) in PBS. The samples were serial diluted, poured in agar plates, and incubated at 37° C. overnight. The number of colony forming units (CFU) of E. coli was quantitated and was expressed as the mean±standard deviation per mouse. […] The growth curve of E. coli was determined in LB broth to evaluate the direct antimicrobial activity of C60(C3).
Groups of 10 B6 mice were inoculated intracerebrally with 5×10^5 E. coli per mouse. […] The mice were monitored for death every 12 hours for 6 days.

## C[C@@H]1C[C@H]2[C@@H]3CCC4=CC(=O)C=C[C@]4(C)[C@@]3(F)[C@@H](O)C[C@]2(C)[C@@]1(O)C(=O)CO [dexamethasone]
  mice protected from E. coli-induced death: 20%
